Measured values reported in article PMC12154426, “TPP-Based Nanovesicles Kill MDR Neuroblastoma Cells and Induce Moderate ROS Increase, While Exerting Low Toxicity Towards Primary Cell Cultures: An In Vitro Study” (International Journal of Molecular Sciences, 2025).
Where two headings read alike, the source gives them in different places.

Experiments:
HTLA 230 [1] = assay: MTS cell viability assay on HTLA 230 NB cells; assay type: cell-based, human; conditions: for cytotoxic effects vs. HTLA 230 higher than vs. HTLA ER: from IC50 values
Protocol: In this section, the strong anticancer effect of BPPB against ETO-sensitive HTLA 230 and multidrug-resistant (MDR) HTLA ER neuroblastoma (NB) cells previously reported was confirmed. Cell viability in HTLA 230 and HTLA ER cells exposed to increasing concentrations of BPPB for 24, 48, and 72 h was assessed by using the MTS essay, which is an efficient, eco- and user-friendly tool, commonly used to investigate the behaviour of cancer cells when exposed to specific treatments and how these treatments influence their growth and viability.
Following this, µM concentrations (x) were transformed in Log10 (x) (Figure 1e (HTLA 230) and Figure 1f (HTLA ER), traces with indicators and error bar). The nonlinear regression models of the Log10 (BPPB concentrations) vs. the normalized response (Hill Slope) shown in Figure 1e (HTLA 230) and Figure 1f (HTLA ER), traces without indicators, elaborated by GraphPad Prism software version 8.0.1 (GraphPad Software, Boston, MA, USA), gave us the IC50 values of BPPB for both cell populations at 24, 48, and 72 h of treatment.
HTLA 230 is a MYCN-amplified human stage-IV NB cell line, obtained from the G. Gaslini Institute, Genoa, Italy. The cytogenetic features of the HTLA 230 cell line include […] MYCN amplification, del(11)t(11;Y), balanced translocation t(1;17)(p36;q21), and dup(11p), which were previously described by Pezzolo et al.. Cells were periodically tested for mycoplasma contamination (Mycoplasma Reagent Set, Aurogene s.p.a, Pavia, Italy). After thawing and eight passages in the culture, cell morphology and proliferation were analyzed. […] Both cell populations were cultured in RPMI 1640 (Euroclone SpA, Pavia, Italy) supplemented with 10% fetal bovine serum (FBS; Euroclone, Pavia, Italy), 2 mM glutamine (Euroclone, Pavia, Italy), 1% penicillin/streptomycin (Euroclone, Pavia, Italy), 1% sodium pyruvate (Sigma-Aldrich, Sant Louis, MO, USA), and 1% amino acid solution (Sigma).
To determine the cytotoxic effects of BPPB, in vitro time- and dose-dependent experiments were carried out, as recently described. Briefly, cells were treated for 24, 48, and 72 h, with increasing concentrations (0.1–2.0 µM) of the compound. […] Cell cultures were carefully monitored before and during the experiments to ensure optimal cell density.
Cell viability was determined by using the CellTiter 96® AQueous One Solution Cell Proliferation MTS Assay (Promega, Madison, WI, USA), as previously described. MTS is a colorimetric method commonly used for determining cell viability. The cell survival rate, expressed as the cell viability percentage (%), was evaluated based on the experimental outputs of treated cells vs. the untreated ones (CTRs), and was calculated as follows: cell viability (%) = (OD treated cells − OD blank)/(OD untreated cells − OD blank) × 100%. IC50 values were calculated by GraphPad Prism 8.0.1 Software (GraphPad Software v8.0, San Diego, CA, USA), as detailed in the Results and Discussion in Section 2.

HTLA 230 [2] = assay: DAPI and Annexin-V/PI staining (necrosis/apoptosis), HTLA 230; assay type: cell-based, human; conditions: 0.5 µM, 24 h
From the text: Although it has been reported that diverse therapeutic approaches to counteract cancer, including chemotherapeutic drugs, gamma irradiation, suicide genes, or immunotherapy, are mediated through the induction of apoptosis, also necrosis, as well as other forms of cell death, that are not classified so far, may be triggered by anticancer therapies. Here, to evaluate if BPPB induced apoptosis or necrosis, both NB cell populations were labelled with Annexin-V-FITC/propidium iodide (PI) and analysed by confocal fluorescence microscopy, as reported in the literature. This is a standard procedure to monitor the progression of apoptosis and the possible presence of necrosis. […]
After the treatment, cells were washed with PBS and stained with the fluorescent DNA dye DAPI (1 µg/mL) for 30 min. After additional washing, the images were immediately acquired in the fluorescence mode using a Nikon AX R confocal microscope equipped with a PLAN APO 20× (Nikon Europe, B.V., Amstelveen, The Netherlands).
Apoptotic and necrotic cells were analysed, as described in Marengo et al.. […] After staining, the images were immediately acquired in fluorescence mode using a Nikon AX R confocal microscope equipped with a PLAN APO 20× (Nikon Europe, B.V., Amstelveen, The Netherlands).

## c1ccc([P+](CCCCCCCCCCCC[P+](c2ccccc2)(c2ccccc2)c2ccccc2)(c2ccccc2)c2ccccc2)cc1 [BPPB, 1,1-(1,12-dodecanediyl)-bis-[1,1,1]-triphenyl phosphonium di-bromide]
HTLA 230 [1]; 0.25 µM, 72 h
  cell viability: 47.6%
HTLA 230 [1]; 0.5 µM, 48 h
  cell viability: 41.8%
HTLA 230 [1]; 0.75 µM, 24 h
  cell viability: 42.5%
HTLA 230 [1]; 24 h
  concentration causing significant reduction in cells' viability: ≥ 0.5 µM
  cytotoxic effects vs. HTLA 230 higher than vs. HTLA ER: 25.3%
HTLA 230 [1]; 24 h, concentrations ≥ 0.75 µM up to 2 µM
  cell viability: 39.3–45.3%
HTLA 230 [1]; 24 h exposure, 0.1–2 µM, read-out: IC50 HTLA 230
  IC50: 926 ± 164 nM
HTLA 230 [1]; 48 h
  concentration causing significant reduction in cells' viability: ≥ 0.1 µM
  cytotoxic effects vs. HTLA 230 higher than vs. HTLA ER: 65.9%
HTLA 230 [1]; 48 h, concentrations ≥ 0.5 µM up to 2 µM
  cell viability: 36.2–41.9%
HTLA 230 [1]; 48 h exposure, 0.1–2 µM, read-out: IC50 HTLA 230
  IC50: 462 ± 103 nM
HTLA 230 [1]; 72 h
  concentration causing significant reduction in cells' viability: ≥ 0.25 µM
  cytotoxic effects vs. HTLA 230 higher than vs. HTLA ER: 67.5%
HTLA 230 [1]; 72 h, lowest value reached with increasing concentrations (up to 2 µM)
  cell viability: 21.7%
HTLA 230 [1]; 72 h exposure, 0.1–2 µM, read-out: IC50 HTLA 230
  IC50: 389 ± 83.6 nM
HTLA 230 [1]; HTLA 230 and HTLA ER vs. SH-SY5Y, 24 h
  more cytotoxic than TiO2-Ta nanoparticles: 64–86 fold
HTLA 230 [1]; HTLA 230 and HTLA ER, 24 h
  anticancer effects higher than compound 3 with PDT/SDT: 10.3–14.7 times
  more potent than Ag20Pep: 105–143 times
  more potent than Ag40Pep: 132–182 times
HTLA 230 [1]; HTLA 230 and HTLA ER, 48 h
  more potent than Ag20Pep: 18–54 times
  more potent than Ag40Pep: 29–90 times
HTLA 230 [1]; HTLA 230 and HTLA ER, 72 h
  cytotoxicity higher than that of compounds 9–13 of Skrzypczak et al.: 1.7–5.1 fold
  more cytotoxic than AgNPs: 4–30 times
HTLA 230 [1]; over 24, 48, 72 h exposure, read-out: IC50 values towards drug-sensitive HTLA 230
  IC50: 400 to 900 nM
HTLA 230 [2]
  apoptosis (Annexin V-FITC / PI labelling): marked apoptosis
  necrosis (DAPI labelling): seemed to induce the necrosis
